Results reported in a melting point compilation (Tetko et al.; mined from patent text by program, amines drawn as free bases though some values may be those of a salt).

| SMILES | melting point [°C] |
| --- | --- |
| NC(=O)c1cn2c(ccc3ccccc32)n1 | 270 to 271 |
| CNC(=O)NC(=O)C(CC1CCCC1O)c1ccc(Cl)c(Cl)c1 (centres undefined) | 62 to 64 |
| C[C@@H](Nc1ncnc2[nH]c(-c3ccc(CN(CCO)CCO)cc3)cc12)c1ccccc1 | 194 to 197 |
| FC(F)(F)C1(C(F)(F)F)c2ccccc2Oc2ccccc21 | 74 to 75 |
| COc1cc(C#N)ccc1C=NO | 170 to 171 |
| CCCc1nn(C)c2c(=O)[nH]c(-c3cc(NS(C)(=O)=O)ccc3OCC)nc12 | 205 to 206 |
| Cc1c(-c2ccc(Cl)c(F)c2)sc2nc(N)[nH]c(=O)c12 | 350 to 370 |
| CC(CC(C(=O)N(C)C)(c1ccccc1)c1ccccc1)N1CCC(NC(=O)c2ccccc2O)C(O)C1 (centres undefined) | 154 |
| COC(=O)N(C(=O)C(=O)c1cn(Cc2ccc(Cl)cc2)c2ccccc12)c1ccc2ncccc2c1 | 178 |
| CCN1C(=O)C(=CC=C2C=C(c3ccc(OC)cc3)C=C3N2c2ccccc2C3(C)C)SC1=S | 210 to 211 |
| O=c1[nH]c2sccc2c(=O)o1 | 233 |
| COc1cccc(C(=O)Nc2ccc(Cn3cnc(O)c3C(N)=O)cc2)c1 | 257 to 259 |
| CC(C)OC(=O)Nc1cccc(-c2ccnc3c(C(=O)c4ccccc4)cnn23)c1 | 116 to 118 |
| CCCCCCCCCCNC(=O)c1cccc(N)c1 | 56 to 58 |
| O=c1[nH]c2cc(Cl)cc(Cl)c2c(O)c1Sc1ccc(OCc2ccccc2)cc1 | 224 to 227 |
| CCOC(=O)c1cc(O)cc(OCC)c1 | 62 to 63 |

Now from value to compound:

| melting point [°C] | SMILES |
| --- | --- |
| 113 to 115 | CC(=O)Oc1cc(-c2ccccc2)oc(=O)c1Sc1ccccc1C(C)C |
| 237 to 239 | O=c1n(CC(F)(F)F)c2ccccc2n1C1CCN(CCCCN2Cc3cc(Cl)ccc3S2(=O)=O)CC1 |
| 239 to 241 | COc1ncccc1Nc1c(NC(NC(=O)c2ccc(Cl)cc2)C(C)(C)C)c(=O)c1=O (centres undefined) |
| 160 to 163 | CCOC(=O)C1(O)CC(c2ccncc2)=NNC1=O (centres undefined) |
| 211 to 212 | O=C1NC(=O)c2ccc(N3CCCCC3)cc2/C1=C/Nc1ccc(CN2CCCCC2)cc1 |
| 84 to 86 | COC(=O)[C@H](c1ccccc1Cl)N1CCc2sc(OC(=O)c3ccccc3)cc2C1 |
| 160 to 161 | CC(=O)SCCCC1(C)C(=O)N2CCCC(C(=O)O)N2C1=O (centres undefined) |
| 187 to 189 | CCC1CCn2c(nc(-c3ccncn3)cc2=O)N1CC(=O)c1ccccc1 (centres undefined) |
| 86 to 89 | CN1C(=O)CC[C@]2(C)c3ccc(-c4ccc(C(F)(F)F)cc4)cc3CC[C@@H]12 |
| 111 to 113 | COCCOc1ccc(CCCNS(=O)(=O)c2ccc(Cl)cc2)c(Oc2ncc(C(F)(F)F)cc2Cl)c1 |
| 117 to 119 | COc1ccc(Cn2c(=O)c3nccnc3n(CCCCBr)c2=O)cc1 |
| 87 to 88 | CC(C)CCN1C(=O)C2(COc3cc(O)c(C(=O)C(F)(F)F)cc32)c2ccccc21 (centres undefined) |
| 71 to 73 | ONCc1ccccc1Cl |
| 165 | C[C@]12C[C@H](c3ccc(OCCCCCCl)cc3)[C@@H]3c4ccc(O)cc4CC[C@H]3[C@@H]1CC[C@@H]2O |
| 225 to 227 | O=C(O)COc1cc(Cl)ccc1C(=O)NCc1nc2cc(C(F)(F)F)ccc2s1 |
| 144 to 147 | Cc1cc(C(=O)/C=C/C(=O)O)c(C)o1 |
| 234 to 236 | N#Cc1ccc(-c2cc(Oc3cccc4ccc(N)nc34)ncn2)cc1 |
| 288 to 290 | CC1(C)CC(=O)C(c2c(Cl)cc([N+](=O)[O-])cc2Cl)C(=O)C1 |
| 159 to 161 | CC(=Cc1ccccc1)S(=O)(=O)NC(=O)N1CCCCC1 |
| 140 to 141 | CC(C)(Cl)C(CCN1C(=O)c2ccccc2C1=O)N=O (centres undefined) |
| 165 to 166 | Cc1cccc2c3c(n(Cc4ccccc4)c12)CCCC3=O |
| 157 to 159 | NC(=O)N(O)Cc1ccc(Br)cc1 |
| 144 to 147 | C=CCOCc1c(C=O)sc2c(=O)c(C(=O)NCc3ccc(Cl)cc3)cn(C)c12 |
